In US4181728A, “Spiro-polycyclicimidazolidinedione derivatives” (Pfizer Inc., priority 1978, dated 1980):

Legend:
[1] = molecular target: T1, aldose reductase enzyme obtained from calf lens (Bos taurus, UniProt P16116); assay: Aldose reductase inhibitory activity (partially purified calf lens enzyme); assay type: biochemical; details: 10^-4 M, * = average of 2 or 3 tests (Examples 2, 5, 6, 7)
T1 construct: partially purified aldose reductase enzyme obtained from calf lens; from tissue; host or cells: calf lens
Procedure: The Examples of spiro-polycyclicimidazolidinedione derivatives prepared above were tested for their ability to reduce or inhibit aldose reductase enzyme activity, following the procedure described in U.S. Pat. No. 3,821,383 and based on the procedure of Hayman et. al., Journal of Biological Chemistry, 240, 877 (1965). The substrate employed was partially purified aldose reductase enzyme obtained from calf lens. The drug was tested at a concentration of 10^-4 M and optionally at lower concentrations and the results are expressed as percent inhibition of enzyme activity.
*This number represents an average of 2 or 3 tests.

[2] = tested on: sorbitol accumulation in the sciatic nerve; assay: Inhibition of sorbitol accumulation in the sciatic nerve of streptozotocinized (diabetic) rats; assay type: in vivo, rat; details: measured 27 h after induction, vs untreated
Procedure: Some of the Examples of spiro-polycyclicimidazolidinedione derivatives prepared above were also tested for their ability to reduce or inhibit sorbitol accumulation in the sciatic nerve of streptozotocinized (i.e., diabetic) rats by the procedure essentially described in U.S. Pat. No. 3,821,383. In the present study, the amount of sorbitol accumulation in the sciatic nerves was measured 27 hours after induction of diabetes. The compounds were administered orally at the dose level indicated at 4, 8 and 24 hours following the administration of streptozotocin. The results obtained in this manner are presented in terms of percent inhibition (%) afforded by the test compound as compared to the case where no compound was administered (i.e., the untreated animal where sorbitol levels normally rise from approximately […] tissue to as high as 400 mM/g tissue in the 27-hour test period).

[3] = 1.5 mg/kg oral at 4, 8 and 24 h after streptozotocin
[4] = 5.0 mg/kg oral at 4, 8 and 24 h after streptozotocin

SMILES	inhibition at 100 µM [1] [%]	% Inhibition of sorbitol accumulation [2, 3]	% Inhibition of sorbitol accumulation [2, 4] [%]
O=C1NC(=O)C2(CCSc3ccc4ccccc4c32)N1 (centres unmarked) [Example 1, 2',3'-dihydro-spiro[imidazolidine-4,4'-[4'H]-naphtho[2,1-b]thiopyran]-2,5-dione]	59		
COc1cccc2c3c(ccc12)C1(CCO3)NC(=O)NC1=O (centres unmarked) [Example 2, 2',3'-dihydro-7'-methoxy-spiro[imidazolidine-4,4'-[4'H]-naphtho[1,2-b]pyran]-2,5-dione]	94	no effect	
O=C1NC(=O)C2(CCCc3ccc4cc5ccccc5cc4c32)N1 (centres unmarked) [Example 3, 1',2',3',4'-tetrahydro-spiro[imidazolidine-4,1'-benz[a]anthracene]-2,5-dione]	26		
O=C1NC(=O)C2(CCSc3c2ccc2ccccc32)N1 (centres unmarked) [Example 4, 2',3'-dihydro-spiro[imidazolidine-4,4'-[4'H]-naphtho[1,2-b]thiopyran]-2,5-dione]	100	32%	
O=C1NC(=O)C2(CCOc3c2cc(Cl)c2ccccc32)N1 (centres unmarked) [Example 5, 5',6'-dihydro-6'-chloro-spiro[imidazolidine-4,4'-[4'H]-naphtho[1,2-b]pyran]-2,5-dione]	78		58
O=C1NC(=O)C2(CCOc3ccc4ccccc4c32)N1 (centres unmarked) [Example 6, 2',3'-dihydro-spiro[imidazolidine-4,4'-[4'H]-naphtho[2,1-b]pyran]-2,5-dione]	78	no effect	
O=C1NC(=O)C2(CCCc3c2ccc2ccccc32)N1 (centres unmarked) [Example 7, 1',2',3',4'-tetrahydro-spiro[imidazolidine-4,1'-phenanthrene]-2,5-dione]	86	no effect	
O=C1NC(=O)C2(CCc3cccc4cccc2c34)N1 (centres unmarked) [Example 8, 2',3'-dihydro-spiro[imidazolidine-4,1'-phenalene]-2,5-dione]	71		28
O=C1NC(=O)C2(CCOc3c2ccc2ccccc32)N1 (centres unmarked) [Example 9, 2',3'-dihydro-spiro[imidazolidine-4,4'-[4'H]-naphtho[1,2-b]pyran]-2,5-dione]	72	30%	
O=C1NC(=O)C2(CCCc3ccc4ccccc4c32)N1 (centres unmarked) [Example 10, 1',2',3',4'-tetrahydro-spiro[imidazolidine-4,4'-phenanthrene]-2,5-dione]	60		
